# Data reported in patent US4818441A, “Quinine derivatines” (Takeda Chemical Industries, Ltd., priority 1979, dated 1989).
# What was measured:
# [1] = test system: Rat liver lysosome; test: Lysosomal membrane stabilizing activity (release of β-glucuronidase and acid phosphatase); type: biochemical; conditions: 37° C., 90 minutes
# Protocol: (1) Rat liver lysosome was incubated at 37° C. for 90 minutes and the activities of β-glucuronidase and acid phosphatase released from the lysosome due to instabilization of the membrane during that time were assayed and compared with the results obtained in the absence of the test compound. The test compound was added as dissolved in dimethylformamide.
# [2] = test system: beef heart muscle phosphodiesterase; test: Phosphodiesterase inhibitory activity; type: biochemical; conditions: 1 mM
# Text: Since lysosomal membrane-stabilizing activity is developed through adenosine-[…]-cyclic monophosphate (c-AMP) of tissue cells, the action of compound (I) on c-AMP phosphodiesterase, the c-AMP decomposing enzyme, was investigated. […] Therefore, it was confirmed, if only from this fact, that the compound according to this invention has a membrane-stabilizing activity.
# (2) The rate of decomposition of adenosine-[…]-cyclic phosphate by beef heart muscle phosphodiesterase was compared with the rate found in the absence of the test compound.
# [3] = test system: ubiquinone-deficient enzyme preparation from beef heart mitochondria (succinate oxidase); test: Electron transport activity (succinate oxidase activity of ubiquinone-deficient enzyme preparation); type: biochemical; conditions: level of addition 5 n mole; control 7.1 ± 2.8
# Protocol: Thus, the compound of this invention was added to a ubiquinone-deficient enzyme preparation made from beef heart mitochondria and the electron transport activity was investigated by assaying the succinate oxidase activity.
# *The ubiquinonedeficient enzyme preparation was prepared from beef heart
# mitochondria in accordance with the method of Lester and Fleischer
# (Biochem. Biophys. Acta, 47, 358, 1961). The electron transport activity
# was investigated by assaying the succinate oxidase activity.
# **The composition of the reaction system (2 ml) was as follows. 0.2 M
# sucrose, 10 mM TrisHCl (pH 7.4), 20 mM KCl, 3 mM MgCl2, […]
# 2Na, enzyme protein 1.99 mg, 50 μM potassium succinate, cytochrome C
# 0.2 mg. 1% Nikkol OP10 (produced by Nikko Chemicals Co. Ltd.) 5 μl
# (control group) or 5 μl of a 1 mM solution of the test compound in 1%
# Nikkol OP10. The oxygen consumption of this solution was measured with an
# oxygen electrode device (Gilson Medical Electronics' Inc.).
# [4] = test system: rats with spontaneous hypertension (Ta:SHR); test: Blood pressure of Ta:SHR, incorporated in feed; type: in vivo, rat; conditions: 6-16 mg/kg/day in feed, mean ± standard error
# Protocol: (§1) Thus, 21-week rats with spontaneous hypertension (Ta:SHR) were organized into groups of 8 to 10 individuals each, and one of the present compounds, i.e. 6-(6-hydroxy-3-methyl-3-hexenyl)-2,3-dimethoxy-5-methyl-1,4-benzoquinone (formula (I) wherein R:H3 CO, n:O, R2 :H, R1 :(CH2)3 OH, α β:double bond), and, as controls, ubiquinone homologs (ubiquinone-7 and ubiquinone-10) were each administered by oral gavage in doses of 10 mg/kg/day for 2 weeks (except on Sunday) or administered as incorporated in feed at the rate of 6 to 16 mg/kg/day for 4 weeks. Blood pressures were measured every week, and as for the oral gavage administration group, the blood was withdrawn from the abdominal aorta at the end of the administration period while each animal was kept under anesthesia with pentobarbital sodium (30 mg/kg, intraperitoneal). Then, the kidneys, liver, heart and adrenals were enucleated and weighed. At two weeks in the case of the oral gavage administration group (Table 3) or during week-1 through week-4 in the case of the feed incorporation group (Table 4), antihypertensive effects were observed. […] Since it is generally acknowledged that, in the case of ubiquinone homologs, such hypotensive effects are attributable to a depression of the ubiquinone (Q) deficiency in mitochondria, the degree of Q deficiency of heart mitochondria was investigated in 6 cases showing blood pressures over 230 mmHg in the control group and 6 cases showing blood pressures under 212 mmHg in the group dosed with the present compound.
# [5] = test system: isolated guinea pig trachea; test: Tracheal muscle relaxant activity; conditions: Cavia porcellus, relaxant effect of noradrenaline taken as 100, read-out: Tracheal muscle relaxant action; for Emax at 30 µg/mL: 3 × 10^-5 g/ml; for Emax at 100 µg/mL: 10^-4 g/ml
# Protocol: Thus, the isolated guinea pig trachea was cut into a strip in accordance with the method of Kiyomoto et al. [Yamaura Y. ed. "Zensoku (Asthma)", Kodansha, Tokyo, p. 152, 1974 (Japanese language)], set up in a Magnus device and kept at constant contraction with potassium chloride solution five times the concentration of Tyrode solution. Under the above conditions, a solution of the drug in DMF was added and the muscle relaxant effect was recorded on a kymograph.
# ^(1) With the relaxant effect of noradrenaline being taken as 100.
# [6] = test system: rats with spontaneous hypertension (Ta:SHR); test: Blood pressure of Ta:SHR, oral gavage; type: in vivo, rat; conditions: 10 mg/kg/day oral gavage, mean ± standard error
# Protocol: as §1
SMILES,% Inhibition on release of acid phosphatase ([1]; 2 × 10^-4 M) [%],% Inhibition on release of β-Glucuronidase ([1]; 2 × 10^-4 M) [%],Action on phosphodiesterase % Inhibition [2] [%],further results
CC1=C(C)C(=O)C(CCC(C)CO)=C(C)C1=O (centres unmarked) [drawing 19 R: H3 C],21,29,44,
CC1=C(C)C(=O)C(C/C=C(\C)CO)=C(C)C1=O [drawing 15 R#1],32,37,41,
COC1=C(OC)C(=O)C(C/C=C(\C)CC/C=C(\C)CC/C=C(\C)CO)=C(C)C1=O,,,,Succinate oxidase activity [oxygen consumption] [3]: 42.4 ± 6.3 (n atoms oxygen) min. per mg p
CC1=C(C)C(=O)C(C/C=C(\C)CCCO)=C(C)C1=O [drawing 17 R#2],,,53,% Inhibition on release of acid phosphatase ([1]; 2 × 10^-5 M): 34%; % Inhibition on release of β-Glucuronidase ([1]; 2 × 10^-5 M): 23%
COC1=C(OC)C(=O)C(C/C=C(\C)CCCO)=C(C)C1=O [drawing 24],,,,Succinate oxidase activity [oxygen consumption] [3]: 18.2 (n atoms oxygen) min. per mg p
CC1=C(C/C=C(\C)CO)C(=O)c2ccccc2C1=O [drawing 15 R#2],39,37,55,
"COC1=C(OC)C(=O)C(C/C=C(\C)CC/C=C(\C)CC/C=C(\C)CC/C=C(\C)CC/C=C(\C)CC/C=C(\C)CC/C=C(\C)CC/C=C(\C)CC/C=C(\C)CCC=C(C)C)=C(C)C1=O [Ubiquinone-10, ubiquinone-10]",,,,Blood pressure ([4]; week 0): 206 ± 16 mmHg; Blood pressure ([4]; week 1): 191 ± 14 mmHg; Blood pressure ([4]; week 2): 187 ± 10 mmHg; Blood pressure ([4]; week 3): 199 ± 17 mmHg; Blood pressure ([4]; week 4): 205 ± 13 mmHg
COC1=C(OC)C(=O)C(C/C=C(\C)CC/C=C(\C)CO)=C(C)C1=O,,,,Succinate oxidase activity [oxygen consumption] [3]: 35.5 ± 3.5 (n atoms oxygen) min. per mg p
"Cn1c(=O)c2[nH]cnc2n(C)c1=O [theophylline, reference compound]",,,32,Emax at 30 µg/mL [5]: 60.4%; Emax at 100 µg/mL [5]: 93%
CC1=C(C)C(=O)C(C/C=C(\C)C(=O)O)=C(C)C1=O [drawing 13 R#2],40,36,42,
CC1=C(CC(O)C(C)C(=O)O)C(=O)c2ccccc2C1=O (centres unmarked) [drawing 11 R#3],35,15,40,
COC1=C(OC)C(=O)C(CC(O)C(C)C(=O)O)=C(C)C1=O (centres unmarked) [drawing 11 R#1],49,18,60,
COC1=C(OC)C(=O)C(C/C=C(\C)CCCO)=C(C)C1=O [drawing 17 R#1],37,28,84,
COC1=C(OC)C(=O)C(C/C=C(\C)C(=O)O)=C(C)C1=O [drawing 13 R#1],44,36,47,
CC1=C(C/C=C(\C)CCCO)C(=O)c2ccccc2C1=O [drawing 17 R#3],,,,% Inhibition on release of acid phosphatase ([1]; 2 × 10^-5 M): 36%; % Inhibition on release of β-Glucuronidase ([1]; 2 × 10^-5 M): 25%
CC1=C(C/C=C(\C)C(=O)O)C(=O)c2ccccc2C1=O [drawing 13 R#3],,,86,
COC1=C(OC)C(=O)C(C/C=C(\C)CCCO)=C(C)C1=O [drawing 28 R: H3 CO],,,,Emax at 30 µg/mL [5]: 85.5%; Emax at 100 µg/mL [5]: 100%
CC1=C(C)C(=O)C(C/C=C(\C)CCCO)=C(C)C1=O [drawing 28 R: H3 C],,,,Emax at 30 µg/mL [5]: 67%; Emax at 100 µg/mL [5]: 100%
COC1=C(OC)C(=O)C(CCC(C)CO)=C(C)C1=O (centres unmarked) [drawing 25],,,,Succinate oxidase activity [oxygen consumption] [3]: 12.5 (n atoms oxygen) min. per mg p
COC1=C(OC)C(=O)C(CC=C(C)CCCC(C)(C)O)=C(C)C1=O,,,,Succinate oxidase activity [oxygen consumption] [3]: 21.4 (n atoms oxygen) min. per mg p
CC1=C(C)C(=O)C(CC(O)C(C)C(=O)O)=C(C)C1=O (centres unmarked) [drawing 11 R#2],48,29,20,
COC1=C(OC)C(=O)C(CCC(C)CO)=C(C)C1=O (centres unmarked) [drawing 19 R: H3 CO],43,38,38,
"COC1=C(OC)C(=O)C(C/C=C(\C)CC/C=C(\C)CC/C=C(\C)CC/C=C(\C)CC/C=C(\C)CC/C=C(\C)CCC=C(C)C)=C(C)C1=O [Ubiquinone-7, ubiquinone-7, reference compound]",,,,Blood pressure ([6]; week 0): 199 ± 9 mmHg; Blood pressure ([6]; week 1): 204 ± 9 mmHg; Blood pressure ([6]; week 2): 206 ± 11 mmHg
CC(=CCC1=C(C)C(=O)c2ccccc2C1=O)CCC=C(C)CCC(C)(C)O [drawing 20 R#2],,,29,% Inhibition on release of acid phosphatase ([1]; 2 × 10^-5 M): 9%; % Inhibition on release of β-Glucuronidase ([1]; 2 × 10^-5 M): 18%
CC(=CCC1=C(C)C(=O)C(C)=C(C)C1=O)CCC=C(C)CCC(C)(C)O [drawing 20 R#1],16,20,18,
